The values that follow are results of earlier work, collected in PMC8359378 (British Journal of Clinical Pharmacology, 2021).

For data set [1] the following is noted: intravenous infusion; cited from earlier work.
The test system of data set [2] is FXI and FXIa. Particulars: subcutaneous administration; cited from earlier work.
In data set [3] the test system is factor XIa activity. Particulars: cited from earlier work.

`CN1CCN(c2cccc3c2CCN(C(=O)/C=C/c2c(-n4cnnn4)ccc(Cl)c2F)[C@@H]3C(=O)Nc2ccc(C(=O)O)cc2)C(=O)C1` [BMS‐962212]: in data set [1], the “patients in the active treated groups reporting AEs” value was 17.6% and the “patients reporting infusion site pain or irritation” value was 5.9%.

B1: MAA868: fully human antibody which binds both FXI and FXIa (antibody, chains of the INN, looked up, V domains shown)
VH: QVQLLESGGGLVQPGGSLRLSCAASGFTFSTAAMSWVRQAPGKGLEWVSGISGSGSSTYYADSVKGRFTISRDNSKNTLYLQMNSLRAEDTAVYYCARELSYLYSGYYFDYWGQGTLVTVSS
VL: QSVLTQPPSASGTPGQRVTISCSGSSSNIGSNDVSWYQQLPGTAPKLLIYKNYNRPSGVPDRFSGSKSGTSASLAISGLQSEDEADYYCSAWDQRQFDVVFGGGTKLTVL
Consider B1, for which the “effect on aPTT and FXI” value in data set [2] is “robust and sustained prolongation of aPTT and FXI suppression”.

B2: Osocimab: fully human IgG1 monoclonal antibody targeting coagulation factor XIa (antibody, chains of the INN, looked up, V domains shown)
VH: EVQLLESGGGLVQPGGSLRLSCAASGFTFSQYGMDWVRQAPGKGLEWVSGIGPSGGSTVYADSVKGRFTISRDNSKNTLYLQMNSLRAEDTAVYYCTRGGPYYYYGMDVWGQGTTVTVSS
VL: DIQMTQSPSSLSASVGDRVTITCQASQDISNYLNWYQQKPGKAPKLLIYDASNLETGVPSRFSGSGSGTDFTFTISSLQPEDIATYYCQQADSFPVTFGGGTKVEIK
With B2, the “effect on apparent factor XIa activity and aPTT” value in data set [3] was “reduced apparent factor XIa activity and prolonged aPTT in a dose‐dependent manner”.
